The results in this text go back to US8722901B2, “Carboxy oxazole or thiazole compounds as DGAT-1 inhibitors useful for the treatment of obesity” (Piramal Enterprises Limited, priority 2009, dated 2014).

Each structure is given as a SMILES string.

This assay deals with T1, hDGAT-1 (Homo sapiens, UniProt O75907).
T1 construct: host or cells: Sf9 insect cells (baculovirus); microsomal fraction
T1 sequence (O75907 1-488): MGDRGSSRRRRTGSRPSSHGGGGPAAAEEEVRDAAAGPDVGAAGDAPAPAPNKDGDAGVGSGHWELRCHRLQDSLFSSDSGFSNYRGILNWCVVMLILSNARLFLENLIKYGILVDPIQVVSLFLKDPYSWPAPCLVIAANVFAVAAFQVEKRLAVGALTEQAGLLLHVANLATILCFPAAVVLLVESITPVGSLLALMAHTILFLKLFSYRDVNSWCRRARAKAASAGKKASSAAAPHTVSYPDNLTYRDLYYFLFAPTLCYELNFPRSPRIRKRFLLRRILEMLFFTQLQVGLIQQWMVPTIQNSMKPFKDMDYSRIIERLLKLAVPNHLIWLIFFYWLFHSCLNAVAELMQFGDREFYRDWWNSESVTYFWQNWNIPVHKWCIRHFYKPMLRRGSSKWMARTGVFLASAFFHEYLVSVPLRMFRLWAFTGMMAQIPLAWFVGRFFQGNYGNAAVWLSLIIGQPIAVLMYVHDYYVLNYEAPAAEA
The assay is described as follows: In-vitro DGAT-1 assay (14C oleoyl CoA, microsomes from Sf9 cells). Type of assay: biochemical. The following applies: 1 μM compound; hDGAT-1 containing microsomes from Sf9 cells. As for the experimental part:
In-Vitro Protocol for DGAT-1 Assay
Sf9 Culture and Treatment
Sf9 cells were grown in T25 flasks containing Graces's Insect media (Invitrogen, US) with 10% FBS (Hyclone, US) with antibiotic (100 units/mL penicillin, 100 μg/mL streptomycin sulphate, 0.25 μg/mL amphotericin B as Fungizone) grown in a 27° C. incubator.
hDGAT-10RF expression clone (RZPDo839C09146 in pDEST vector) was obtained from RZPD, Germany. hDGAT-1 bacmid DNA was obtained by transformation of the hDGAT expression clone into DH10Bac E. coli competent cells. Approximately 1 μg of hDGAT-1 bacmid DNA was infected into Sf9 cells with Cellfectin (Invitrogen, US) reagent. Following infection, Sf9 cells were incubated at 27° C. for 30 minutes. Five hours after infection, the media was replaced with growth media containing antibiotic (100 units/mL penicillin, 100 μg/mL streptomycin sulphate, 0.25 μg/mL amphotericin B as Fungizone) and incubated at 27° C. for 72 hours. The supernatant containing the virus was centrifuged at 1500 g for 5 minutes, passed through 0.22 μm filter, and subsequently stored at 4° C. The virus was further amplified three more times by re-infection of Sf9 cells and the viral titer was determined by plaque assay.
Preparation of DGAT-1 Microsomes from Sf9 Cells
Sf9 cells were seeded in spinner flasks on day 0 at a cell density of 1×10^6 and infected on day 1 with hDGAT-1 baculovirus at a multiplicity of infection (MOI) of 5 and a cell density of 2×10^6. On day 3 (or 66-72 hours), cells were harvested and centrifuged at 2500 g for 10 minutes. Pellet was resuspended in lysis buffer (100 mM sucrose, 50 mM KCl, 40 mM KH2PO4, 30 mM EDTA, pH 7.2) and passed through 21-gauge needle approximately 10 times. […] The supernatant was subjected to centrifugation at 35,000 rpm in a Beckman Ti-45 rotor at 4° C. for 1 hour. The resultant pellet containing the microsomes were resuspended overnight in 1 mL of lysis buffer and total protein concentration was estimated using Bradford Reagent (Sigma, US). Microsomes were aliquoted and stored at −80° C.
Measurement of DGAT-1 Activity
Frozen aliquots of hDGAT-1 containing microsomes were thawed (5-10 mg/mL total protein) on ice and diluted to a working stock of 1 mg/mL with DGAT Assay Buffer (DAB).
The assay was performed in duplicates in a reaction volume of 100 μL. […] Procedure:
The reaction was started by the addition of […] of 1 mg/mL of microsomes (iv) to the mixture and incubated at 37° C. for 10 minutes. […] The mixture was vortexed and the triglycerides formed were extracted into the organic heptane phase.

`CC(C)[C@H](NC(=O)c1ncc(-c2ccc(NC(=O)Nc3ccc(Cl)cc3)cc2)o1)C(=O)O` [Example 58, (S)-2-(5-(4-(3-(4-chlorophenyl)ureido)phenyl)oxazole-2-carboxamido)-3-methylbutanoic acid] had an inhibition at 1 µM of 50 to 100%.
Still for that read-out and setting: the same measure for `CC(C)[C@H](NC(=O)c1ncc(-c2ccc(NC(=O)Nc3ccc(Cl)cc3F)cc2)o1)C(=O)O` [Example 64, (S)-2-(5-(4-(3-(4-chloro-2-fluorophenyl)ureido)phenyl)oxazole-2-carboxamido)-3-methylbutanoic acid]: 50 to 100%; for `CC(C)C(NC(=O)c1nc(-c2ccc(NS(=O)(=O)c3ccc(Cl)cc3Cl)cc2)cs1)C(=O)O` (stereo not shown) [Example 46, 2-(4-(4-(2,4-Dichlorophenylsulfonamido)phenyl)thiazole-2-carboxamido)-3-methylbutanoic acid]: 0 to 50%.
Take `CC(C)C(NC(=O)c1ncc(-c2ccc(NC(=O)Nc3ccc(Cl)cc3Oc3ccccc3)cc2)o1)C(=O)O` (stereo not shown) [Example 8, 2-(5-(4-(3-(4-chloro-2-phenoxyphenyl)ureido)phenyl)oxazole-2-carboxamido)-3-methylbutanoic acid]: the inhibition at 1 µM was 50 to 100%.
For the compound `CC(C)C(NC(=O)c1ncc(-c2ccc(N(Cc3ccccc3)Cc3ccccc3)cc2)s1)C(=O)O` (stereo not shown) [Example 93, 2-(5-(4-(dibenzylamino)phenyl)thiazole-2-carboxamido)-3-methylbutanoic acid], the inhibition at 1 µM fell in the range of 0 to 50%.
Take `CC(C)C(NC(=O)c1ncc(-c2ccc(NC(=O)c3ccc(-c4ccccc4)cc3)cc2)s1)C(=O)O` (stereo not shown) [Example 48, 2-(5-(4-biphenyl-4-ylcarboxamidophenyl)thiazole-2-carboxamido)-3-methylbutanoic acid]: the “% inhibition of hDGAT-1 at 1 μM” value is “++ (>50% Inhibition ≦100)”.
With `CC(C)C(NC(=O)c1nc(-c2ccc(NC(=O)c3ccc(C(C)(C)C)cc3)cc2)cs1)C(=O)O` (stereo not shown) [Example 28, 2-(4-(4-(4-tert-butylbenzamido)phenyl)thiazole-2-carboxamido)-3-methylbutanoic acid], the inhibition at 1 µM lay within 0 to 50%.
Still for that read-out and setting: the result for `CCCCCc1ccc(C(=O)Nc2ccc(-c3cnc(C(=O)N(C)C(C(=O)O)C(C)C)s3)cc2)cc1` (stereo not shown) [Example 40, 3-Methyl-2-(N-methyl-5-(4-(4-pentylbenzamido)phenyl)thiazole-2-carboxamido)butanoic acid] reads 50 to 100%; that for `CC(C)[C@H](NC(=O)c1ncc(-c2ccc(NC(=O)Nc3ccc4c(c3)CCC4)cc2)o1)C(=O)O` [Example 56, (S)-2-(5-(4-(3-(2,3-dihydro-1H-inden-5-yl)ureido)phenyl)oxazole-2-carboxamido)-3-methylbutanoic acid], 50 to 100%.
Still for that read-out and setting: the result for `CC(C)C(C(=O)O)N(C)C(=O)c1ncc(-c2ccc(NC(=O)c3ccc(C(C)(C)C)cc3)cc2)s1` (stereo not shown) [Example 44, 2-(5-(4-(4-tert-Butylbenzamido)phenyl)-N-methylthiazole-2-carboxamido)-3-methylbutanoic acid] reads 50 to 100%.
As for `CC(C)C(C(=O)O)N(C)C(=O)c1ncc(-c2ccc(NC(=O)c3ccc(-c4ccccc4)cc3)cc2)s1` (stereo not shown) [Example 42, 2-(5-(4-Biphenyl-4-ylcarboxamidophenyl)-N-methylthiazole-2-carboxamido)-3-methylbutanoic acid], the “% inhibition of hDGAT-1 at 1 μM” value was “++ (>50% Inhibition ≦100)”.
The compound `CC(C)C(NC(=O)c1ncc(-c2ccc(NC(=O)C3Cc4ccccc4C3)cc2)s1)C(=O)O` (stereo not shown) [Example 52, 2-(5-(4-(2,3-dihydro-1H-indene-2-carboxamido)phenyl)thiazole-2-carboxamido)-3-methylbutanoic acid] displayed an inhibition at 1 µM of 50 to 100%.
For `CC(C)[C@H](NC(=O)c1ncc(-c2ccc(NC(=O)Nc3ccc(C(F)(F)F)cc3Cl)cc2)s1)C(=O)O` [Example 72, (S)-2-(5-(4-(3-(2-chloro-4-(trifluoromethyl)phenyl)ureido)phenyl)thiazole-2-carboxamido)-3-methylbutanoic acid], the inhibition at 1 µM was in the range of 50 to 100%.
For `CC(C)C(NC(=O)c1nc(-c2ccc(NC(=O)Nc3ccc(Cl)cc3Oc3ccccc3)cc2)cs1)C(=O)O` (stereo not shown) [Example 34, 2-(4-(4-(3-(4-chloro-2-phenoxyphenyl)ureido)phenyl)thiazole-2-carboxamido)-3-methylbutanoic acid], the inhibition at 1 µM fell in the range of 0 to 50%.
Same read-out and setting: the result for `CC(C)C(NC(=O)c1ncc(-c2ccc(NCc3ccc(F)cc3)cc2)s1)C(=O)O` (stereo not shown) [Example 91, 2-(5-(4-((4-Fluorobenzyl)amino)phenyl)thiazole-2-carboxamido)-3-methylbutanoic acid] reads 0 to 50%.
Compound `CCCCCc1ccc(C(=O)Nc2ccc(-c3csc(C(=O)NC(C(=O)O)C(C)C)n3)cc2)cc1` (stereo not shown) [Example 38, 3-Methyl-2-(4-(4-(4-pentylbenzamido)phenyl)thiazole-2-carboxamido) butanoic acid] displayed an inhibition at 1 µM of 0 to 50%.
In turn, `Cc1ccc(NC(=O)Nc2ccc(-c3csc(C(=O)NC(C(=O)O)C(C)C)n3)cc2)cc1C` (stereo not shown) [Example 32, 2-(4-(4-(3-(3,4-Dimethylphenyl)ureido)phenyl)thiazole-2-carboxamido)-3-methylbutanoic acid] registered an inhibition at 1 µM of 0 to 50%.
Still for that read-out and setting: the result for `CC(C)[C@H](NC(=O)c1ncc(-c2ccc(NC(=O)Nc3ccc(Cl)cc3)cc2)s1)C(=O)O` [Example 68, (S)-2-(5-(4-(3-(4-chlorophenyl)ureido)phenyl)thiazole-2-carboxamido)-3-methylbutanoic acid] reads 50 to 100%; that for `CC(C)C(NC(=O)c1nc(-c2ccc(NC(=O)Nc3ccc(C(F)(F)F)cc3)cc2)cs1)C(=O)O` (stereo not shown) [Example 30, 3-methyl-2-(4-(4-(3-(4-(trifluoromethyl)phenyl)ureido)phenyl)thiazole-2-carboxamido)butanoic acid], 0 to 50%.
Turning to `CC(C)C(NC(=O)c1ncc(-c2ccc(NC(=O)Nc3cccc(C(F)(F)F)c3)cc2)o1)C(=O)O` (stereo not shown) [Example 2, 3-Methyl-2-(5-(4-(3-(3-(trifluoromethyl)phenyl)ureido)phenyl)oxazole-2-carboxamido)butanoic acid], the inhibition at 1 µM was 50 to 100%.
The compound `CC(C)[C@H](NC(=O)c1ncc(-c2ccc(NC(=O)Nc3cccc(Cl)c3)cc2)s1)C(=O)O` [Example 70, (S)-2-(5-(4-(3-(3-chlorophenyl)ureido)phenyl)thiazole-2-carboxamido)-3-methylbutanoic acid] registered an inhibition at 1 µM of 50 to 100%.
The same measure, in the same setting: the same measure for `CC(C)[C@H](NC(=O)c1ncc(-c2ccc(NC(=O)Nc3ccc(C(F)(F)F)cc3Cl)cc2)o1)C(=O)O` [Example 62, (S)-2-(5-(4-(3-(2-chloro-4-(trifluoromethyl)phenyl)ureido)phenyl)oxazole-2-carboxamido)-3-methylbutanoic acid]: 50 to 100%; for `CC(C)C(NC(=O)c1nc(-c2ccc(NC(=O)Nc3ccccc3Cl)cc2)cs1)C(=O)O` (stereo not shown) [Example 24, 2-(4-(4-(3-(2-Chlorophenyl)ureido)phenyl)thiazole-2-carboxamido)-3-methylbutanoic acid]: 0 to 50%; for `Cc1ccc(NC(=O)Nc2ccc(-c3cnc(C(=O)NC(C(=O)O)C(C)C)o3)cc2)cc1C` (stereo not shown) [Example 6, 2-(5-(4-(3-(3,4-dimethylphenyl)ureido)phenyl)oxazole-2-carboxamido)-3-methylbutanoic acid]: 50 to 100%.
Same read-out and setting: the result for `CC(C)[C@H](NC(=O)c1ncc(-c2ccc(NC(=O)Nc3ccc(Cl)cc3F)cc2)s1)C(=O)O` [Example 74, (S)-2-(5-(4-(3-(4-chloro-2-fluorophenyl)ureido)phenyl)thiazole-2-carboxamido)-3-methylbutanoic acid] reads 50 to 100%.
